Values of other authors in patent US11969487B2, “Non-cellular root canal filling material and non-cellular dental tissue regeneration promoting kit” (Kowa Company, Ltd., priority 2017, dated 2024).
Where two headings read alike, the source gives them in different places.

Legend:
[1] = system: dental pulp regeneration in dogs
[2] = system: dental pulp stem cells on dentin surfaces; conditions: dental pulp stem cells seeded on treated dentin surfaces in vitro

For trypsin, the dental pulp regeneration ([1]; no transplantation of dental pulp stem cells) is listed as “hardly observed”, the dental pulp regeneration ([1]; root canals pretreated before dental pulp stem cell transplantation, middle-aged and elderly individuals) is listed as “promoted” and the “effect of pretreatment on the dental pulp regeneration” value ([1]; young dogs) is listed as “no effect”. The “adhesion of the cells” value [2] was “increased” and the differentiation into odontoblasts [2] was “promotion of differentiation into odontoblasts was observed”.
